From patent US9115143B2, “Substituted indole derivatives as gamma secretase modulators” (Janssen Pharmaceuticals, Inc., priority 2011, dated 2015)

Key:
Aβtotal = experiment: In vivo efficacy B-1a/B-2a: brain soluble Aβtotal in non-transgenic rodents, ELISA; design: species or system mouse; conditions: Mus musculus, po, 4 h, dose 30 mg/kg oral dosing; brain soluble fraction; untreated animals (Ctrl) set at 100; read-out: Aβtotal (% vs Ctrl)_Mean
Description: (§1) To determine whether acute administration of an Aβ42 lowering agent would reduce Aβ42 levels in vivo, non-transgenic rodents, e.g. mice or rats were used. Animals treated with the Aβ42 lowering agent were examined and compared to those untreated or treated with vehicle and brain levels of soluble Aβ42 and total Aβ were quantitated by standard techniques, for example, using ELISA. Treatment periods varied from hours (h) to days and were adjusted based on the results of the Aβ42 lowering once a time course of onset of effect could be established.
(§2) A typical protocol for measuring Aβ42 lowering in vivo is shown but it is only one of many variations that could be used to optimize the levels of detectable Aβ. For example, Aβ42 lowering compounds were formulated in 20% of Captisol® (a sulfobutyl ether of β-cyclodextrin) in water or 20% hydroxypropyl β cyclodextrin. The Aβ42 lowering agents were administered as a single oral dose or by any acceptable route of administration to overnight fasted animals. After 4 h, the animals were sacrificed and Aβ42 levels were analysed.
(§3) Blood was collected by decapitation and exsanguinations in EDTA-treated collection tubes. Blood was centrifuged at 1900 g for 10 minutes (min) at 4° C. and the plasma recovered and flash frozen for later analysis. The brain was removed from the cranium and hindbrain. The cerebellum was removed and the left and right hemisphere were separated. The left hemisphere was stored at −18° C. for quantitative analysis of test compound levels. The right hemisphere was rinsed with phosphate-buffered saline (PBS) buffer and immediately frozen on dry ice and stored at −80° C. until homogenization for biochemical assays.
(§4) Mouse brains from non-transgenic animals were resuspended in 8 volumes of 0.4% DEA (diethylamine)/50 mM NaCl containing protease inhibitors (Roche-11873580001 or 04693159001) per gram of tissue, e.g. for 0.158 g brain, add 1.264 mL of 0.4% DEA. All samples were homogenized in the FastPrep-24 system (MP Biomedicals) using lysing matrix D (MPBio #6913-100) at 6 m/s for 20 seconds. Homogenates were centrifuged at 20800×g for 5 min and supernatants collected. Supernatants were centrifuged at 221.300×g for 50 min. The resulting high speed supernatants were then transferred to fresh eppendorf tubes. Nine parts of supernatant were neutralized with 1 part 0.5 M Tris-HCl pH 6.8 and used to quantify Aβtotal and Aβ42.
To quantify the amount of Aβtotal and Aβ42 in the soluble fraction of the brain homogenates, Enzyme-Linked-Immunosorbent-Assays were used. Briefly, the standards (a dilution of synthetic Aβ1-40 and Aβ1-42, Bachem) were prepared in 1.5 mL Eppendorf tube in Ultraculture, with final concentrations ranging from 10000 to 0.3 pg/mL. The samples and standards were co-incubated with HRPO-labelled N-terminal antibody JRF/rAμ/2 for Aβ42 detection and with the biotinylated mid-domain antibody 4G8 for Aβtotal detection. 50 μl of conjugate/sample or conjugate/standards mixtures were then added to the antibody-coated plate (the capture antibodies selectively recognize the C-terminal end of Aβ42, antibody JRF/cAβ42/26, for Aβ42 detection and the N-terminus of AB, antibody JRF/rAβ/2, for Aβtotal detection). The plate was allowed to incubate overnight at 4° C. in order to allow formation of the antibody-amyloid complex. Following this incubation and subsequent wash steps the ELISA for Aβ42 quantification was finished by addition of Quanta Blu fluorogenic peroxidase substrate according to the manufacturer's instructions (Pierce Corp., Rockford, Ill.). A reading was performed after 10 to 15 min (excitation 320 nm/emission 420 nm).
For Aβtotal detection, a Streptavidine-Peroxidase-Conjugate was added, followed 60 min later by an additional wash step and addition of Quanta Blu fluorogenic peroxidase substrate according to the manufacturer's instructions (Pierce Corp., Rockford, Ill.). A reading was performed after 10 to 15 min (excitation 320 nm/emission 420 nm). […]

Aβ38 = experiment: In vivo efficacy B-2a: brain soluble Aβ38 in non-transgenic rodents, ELISA; design: species or system mouse; conditions: Mus musculus, po, dose 30 mg/kg oral dosing; brain soluble fraction; untreated animals (Ctrl) set at 100; read-out: Aβ38 (% vs Ctrl)_Mean
Description: Aβ38 increasing agents can be administered in any standard form using any standard method. For example, but not limited to, Aβ38 increasing agents can be in the form of liquid, tablets or capsules that are taken orally or by injection.
as §1, with “Aβ38 increasing agents” for “Aβ42 lowering agent”, “increase Aβ38” for “reduce Aβ42”, “Aβ38” for “Aβ42”, “Aβ38 increase” for “Aβ42 lowering”
as §2, with “measuring Aβ38 increase” for “measuring Aβ42 lowering”, “example, Aβ38 increasing agents” for “example, Aβ42 lowering compounds”, “The Aβ38 increasing” for “The Aβ42 lowering”, “and Aβ38” for “and Aβ42”
as §3
as §4, with “Aβ38.” for “Aβ42.”
To quantify the amount of Aβtotal and Aβ38 in the soluble fraction of the brain homogenates, Enzyme-Linked-Immunosorbent-Assays were used. Briefly, the standards (a dilution of synthetic Aβ1-40 and Aβ1-38, ANASPEC) were prepared in 1.5 mL Eppendorf tube in Ultraculture, with final concentrations ranging from 10000 to 0.3 pg/mL. The samples and standards were co-incubated with HRPO-labelled N-terminal antibody for Aβ38 detection and with the biotinylated mid-domain antibody 4G8 for Aβtotal detection. 50 μl of conjugate/sample or conjugate/standards mixtures were then added to the antibody-coated plate (the capture antibodies selectively recognize the C-terminal end of Aβ38, antibody J&JPRD/Aβ38/5, for Aβ38 detection and the N-terminus of Aβ, antibody JRF/rAβ/2, for Aβtotal detection). The plate was allowed to incubate overnight at 4° C. in order to allow formation of the antibody-amyloid complex. Following this incubation and subsequent wash steps the ELISA for Aβ38 quantification was finished by addition of Quanta Blu fluorogenic peroxidase substrate according to the manufacturer's instructions (Pierce Corp., Rockford, Ill.). A reading was performed after 10 to 15 min (excitation 320 nm/emission 420 nm). […]

Row | SMILES | response vs control in vivo at 30 mg/kg (Aβtotal) | response vs control in vivo at 30 mg/kg (Aβ38)
1 | Cc1cn(-c2cc3cc(-c4nc5n(n4)CCCC5c4ccc(F)cc4C)[nH]c3cn2)cn1 (centres unmarked) [Compound 71, 8-(4-fluoro-2-methylphenyl)-5,6,7,8-tetrahydro-2-[5-(4-methyl-1H-imidazol-1-yl)-1H-pyrrolo[2,3-c]pyridin-2-yl]-[1,2,4]triazolo[1,5-a]pyridine] | 115% | 115%
2 | Cc1cn(-c2ccc3[nH]c(-c4nc5n(n4)CCCC5c4ccc(F)cc4C)cc3c2)cn1 (centres unmarked) [Compound 73, 8-(4-fluoro-2-methylphenyl)-5,6,7,8-tetrahydro-2-[5-(4-methyl-1H-imidazol-1-yl)-1H-indol-2-yl]-[1,2,4]triazolo[1,5-a]pyridine] | 80% | 120%
3 | COc1c(C#N)ccc2[nH]c(-c3cn4c(n3)C(c3ccc(F)cc3C)CCC4)cc12 (centres unmarked) [Compound 74, 2-[8-(4-fluoro-2-methylphenyl)-5,6,7,8-tetrahydroimidazo[1,2-a]pyridin-2-yl]-4-methoxy-1H-indole-5-carbonitrile] | 85% | 117%
4 | COc1c(-c2cnn(C)c2)ccc2[nH]c(-c3cn4c(n3)C(c3ccc(F)cc3C)OCC4)cc12 (centres unmarked) [Compound 96, 8-(4-fluoro-2-methylphenyl)-5,6-dihydro-2-[4-methoxy-5-(1-methyl-1H-pyrazol-4-yl)-1H-indol-2-yl]-8H-imidazo[2,1-c][1,4]oxazine] | 92% | 124%
5 | Cc1cc(F)ccc1C1OCCn2cc(-c3cc4cc(-c5cnn(C)c5)ccc4[nH]3)nc21 (centres unmarked) [Compound 99, 8-(4-fluoro-2-methylphenyl)-5,6-dihydro-2-[5-(1-methyl-1H-pyrazol-4-yl)-1H-indol-2-yl]-8H-imidazo[2,1-c][1,4]oxazine] | 115% | 96%
6 | COc1c(C#N)ccc2[nH]c(-c3nc4n(n3)CCOC4c3ccc(F)cc3C)cc12 (centres unmarked) [Compound 111, 2-[8-(4-fluoro-2-methylphenyl)-5,6-dihydro-8H-[1,2,4]triazolo[5,1-c][1,4]oxazin-2-yl]-4-methoxy-1H-indole-5-carbonitrile] | 120% | 107%
7 | Cc1cn(-c2ccc3[nH]c(-c4nc5n(n4)CCCC5c4ccc(F)cc4C)nc3c2)cn1 (centres unmarked) [Compound 176, 8-(4-fluoro-2-methylphenyl)-5,6,7,8-tetrahydro-2-[5-(4-methyl-1H-imidazol-1-yl)-1H-benzimidazol-2-yl]-[1,2,4]triazolo[1,5-a]pyridine] | 101% | 93%
